We go through eight molecules from patent publication US20170202878A1, “Method for Preventing or Treating a Protein Aggregation Disease” (Queen Mary University of London, priority 2014, published 2017).

Data set [1] has as its system RNAse-aggregated proteins from human neurons. The data set is described as follows: RNA-mediated re-folding of RNAse-aggregated proteins. It counts as biochemical. Particulars: for protein solubilising effect of G-quadruple-forming and non-forming oligos: RNAse aggregated proteins from human neurons, aggregated proteins quantified. The procedure: Proteins were isolated from neuronal lysate by RNAse A/T1 treatment and centrifugation. Pelleted proteins were dissolved in 50 μl of denaturation buffer (20 mM Tris-HCl pH 7.5, 6 M Guanidine hydrochloride, 1% Triton X-100, 20 mM DTT) and sonicated for 5 min at room temperature. […] Dialysis was performed against 600 ml PBS buffer at 4° C. overnight after which the PBS was replaced with fresh PBS (400 ml) and the container placed in a water bath and kept at 37° C. for 1 h. The dialysed samples were transferred to 1.5 ml tubes and the volume adjusted to 100-200 μl with PBS. 7.5-10% of this was taken as Input. Precipitated proteins (Pel 1) were pelleted by centrifugation at 21.000×g for 10 min at +4° C., washed twice in RIPA buffer and processed for SDS-PAGE as before. 7.5-10% of the supernatants was saved (Sup 1) and the remaining volume was either divided into two new tubes supplemented with 0.5 μl vehicle or 0.5 μl RNAse A/T1 or the whole sample placed in one tube and treated with 0.5 μl RNAse A/T1. All samples were incubated at 37° C. for one hour and centrifuged as before. Pelleted proteins (P2) were washed as before and dissolved in SDS/Urea and sonicated. Equal volumes of each fraction were separated on SDS-PAGE gels and then either stained with coomassie or transferred to membranes for western blot analysis. RNA was isolated from cell lysates and purified ribosomes with Trizol LS (Life Technologies) according to the manufacturer's instructions. Ribosomes were isolated from Jurkat T-cells. RNA depleted for rRNA was isolated from the upper two thirds of the supernatant (after pelleting of ribosomes and five times dilution in water) with acid phenol (Life Technologies) followed by EtOH precipitation. RNA from intact cells was isolated with Isol-RNA Lysis Reagent (5 PRIME), according to the manufacturer's instructions. All RNA samples were dissolved in TE (10 mM Tris-HCl pH 8.0, 1 mM EDTA). RNA was analysed by 1.5% agarose or 6% PAGE/8M Urea gel electrophoresis and visualised with Ethidium Bromide. […]

The subject of data set [2] is aggregated proteins from Jurkat T-cells. The data set is described as follows: Two-step refolding of proteins with small molecules or synthetic DNA/RNA. The settings on record: increasing concentrations.
Data set [3] deals with cell or tissue lysate treated with RNAse A/T1. The data set is described as follows: Sodium orthovanadate: impact on RNAse-induced protein aggregation.
Protocol: Cell or tissue lysate was prepared as described above. Lysate (200 μg at 2 μg/ul) is then treated with a mixture of RNAse A and T1 (A/T1), and incubated with increasing concentrations of Sodium Orthovanadate for one hour at 37° C. Aggregated proteins were isolated by centrifugation (21.000×g) at 4° C. for 20 min, washed twice in 500 μl RIPA buffer and then dissolved in 12 μl 6M Guanidine Hydrochloride, 20 mM Tris-HCl pH 7.5 by sonication for 5 min at room temperature. The amount of protein in 5 μl of this solution was then determined by using the BCA Kit (Thermo Scientific) according to the manufacturer's protocol. Data were expressed in arbitrary units (AU) as a fraction of the amount aggregated proteins (P1)/the amount of protein in the Input, and represent mean±s.d, n=2. […] The experiment was repeated with 50 μM SO and increasing concentrations of RNAse A/T1.
Data set [4] deals with lysate from mouse cortex. The experiment in a line: Ribonucleoside vanadyl: impact on protein aggregation. In kind it is biochemical. Particulars: 10 mM, 1 hour at 37° C., coomassie SDS-PAGE.
Data set [5] has as its system amyloid-β, tau (MAPT), α-synuclein (SNCA), TARDBP (TDP-43), FUS, HTT, PrP, HNRNPA1, actin, NF-H in human neuronal lysates.
For data set [6], the system named is Huntingtin (HTT), FUS and TARDBP in Jurkat cell lysates. It counts as biochemical, human. Particulars: 15 min treatment, then 1 hour at 37° C.

“18S 1129-69: predicted G4-forming ssDNA oligo derived from human 18S ribosomal RNA, 40 nt”: in data set [1], the “protein solubilising effect of G-quadruple-forming and non-forming oligos” value was “can solubilise the proteins”.

In the case of `[Na+].[Na+].[Na+].[O]=[V]([O-])([O-])[O-]` [Sodium orthovanadate], the “prevention of protein aggregation after refolding (BCA assay)” value in data set [2] is “can mimic RNA/DNA in preventing protein aggregation after refolding”. Further, the “background protein aggregation in lysate” value in data set [3] is “prevents any background protein aggregation”. Moreover, the “inhibition of RNAse mediated protein aggregation” value in data set [3] (added to cell or tissue lysate together with RNAses, 1 hour at 37° C., e.g. TDP-43 and huntingtin) is given as “completely inhibit aggregation of the proteins”.

In the case of “No 4G 1129-69: oligo with same nucleotides as 18S 1129 in an order not predicted to form G-quadruples (DNA TTAAGGGCATCTGATGCGGCGCGTGACGCGGCGCTAAGTG; DNA, backbone not given here)”, the “protein solubilising effect of G-quadruple-forming and non-forming oligos” value in data set [1] is recorded as “much less efficient”.

In the case of Ribonucleoside vanadyl, the figures for the “protein aggregation in lysate in the absence of exogenous RNAse” value in data set [4] and in data set [4] (listed as Riobonucleoside vanadyl (VA)) were “causes substantial protein aggregation” and “causes protein aggregation”, respectively.

Regarding heparin, the “re-folding / solubilisation of RNAse-aggregated proteins (global protein profile)” value in data set [1] (denatured in 6M guanidine hydrochloride, dialysed, same amount in weight of nucleic acid or heparin) was “neither yeast tRNA nor heparin could substitute for the solubilising capacity of total human RNA”.

B1: RNase T1: ribonuclease cleaving single-stranded RNA after G (protein, UniProt P00651 27-130, looked up)
Guanyl-specific ribonuclease …: ACDYTCGSNCYSSSDVSTAQAAGYQLHEDGETVGSNSYPHKYNNYEGFDFSVSSPYYEWPILSSGDVYSGGSPGADRVVFNENNQLAGVITHTGASGNNFVECT
Turning to B1, the “proteins most efficiently precipitated by the RNase (western blot)” value in data set [5] was “FUS”.

B2: immobilised RNAse A: biotinylated RNAse A coupled to magnetic strepavidine beads (protein, UniProt P61823 27-150, looked up)
Ribonuclease pancreatic: KETAAAKFERQHMDSSTSAASSSNYCNQMMKSRNLTKDRCKPVNTFVHESLADVQAVCSQKNVACKNGQTNCYQSYSTMSITDCRETGSSKYPNCAYKTTQANKHIIVACEGNPYVPVHFDASV
modifications: biotinylated, coupled to streptavidin magnetic beads
For the molecule B2, in data set [6], the “aggregation of HTT, FUS and TARDBP after mixing 10% treated lysate with non-treated lysate (western blot)” value is “increase in aggregation”.

B3: RNase A: ribonuclease cleaving single-stranded RNA after C and U, from Sigma (protein)
chain: KETAAAKFERQHMDSSTSAASSSNYCNQMMKSRNLTKDRCKPVNTFVHESLADVQAVCSQKNVACKNGQTNCYQSYSTMSITDCRETGSSKYPNCAYKTTQANKHIIVACEGNPYVPVHFDASV
As for B3, the “proteins most efficiently precipitated by the RNase (western blot)” value in data set [5] is “TARDBP, HTT and PrP”.
